The values below come from patent publication US12371427B2, “Polymorphic forms of a substituted-quinoxaline-type bridged-piperidine compound” (Purdue Pharma L.P., priority 2019, dated 2025).

Holding throughout (assay type): physicochemical
A short description of series [1]: Relative stability (ripening) study of crystal forms at various water activity levels. The protocol: Relative stability studies were conducted at 25° C. to determine thermodynamic crystal stability at various water activity levels ranging from aw=0 to aw=0.94. Both non-solvated forms (Forms A and D) and hydrate forms (Form C and E) were ripened during the study.
Saturated suspensions of the Formula (I) were prepared by stirring excess API in the specified solvent system. The suspension was stirred overnight at 25° C. A clarifying filtration was performed and the filtrate was added to a 2 mL vial containing seeds or small quantities of the relevant forms. The resulting suspensions were stirred at 25° C. for seven days. The solids were isolated, air-dried for 45 minutes, and analyzed by FTIR.

The nature of series [2]: Solubility study, visually estimated by dosing solvent aliquots into 10.0 mg API. Conditions: thermodynamic from solid. The protocol:
Solubility was assessed in an array of diverse solvents in order to facilitate the selection of solvent systems and corresponding dosing strategies for the subsequent crystal-form screening experiments. The solubility of Form A of Formula (I) was visually estimated in 12 solvents at RT, and if applicable, at 40° C. by dosing small aliquots of the solvent into a fixed amount of the API (10.0 mg) until the dissolution point or a maximum volume of 1.8 mL was reached.

Series [3] in a line: Particle size distribution after jet milling, laser diffraction dry particle size analyzer. Conditions: crystalline Form A after fluidized bed opposed jet milling. How it is done: 21.98 kg of crystalline Form A Formula (I) was processed in a fluidized bed opposed jet mill (Model number 100AFG; Hosokawa Micron) at a feed rate of 8 kg/h under nitrogen at 0.6 MPa and 15,000 rpm. After milling, 20.9 kg ([…]) was collected and analyzed by laser diffraction dry particle size analyzer (HELOS&RODOS).

Where two headings read alike, the source gives them in different places.

A word on the solubility: it is the concentration that dissolves in the medium under given conditions.

Turning to `O=C(O)c1nc2ccccc2n([C@H]2C[C@H]3CCC[C@@H](C2)N3C2CC3CCCC(C3)C2)c1=O` (stereo partly shown) [Form A], the “Crystal form remaining after the ripening study” value in series [1] (all solvent systems, 25° C., seven days, FTIR) was “the only crystal form remaining”. In addition, the “Relative stability among crystalline forms of Formula (I)” value in series [1] (confirmed in ripening studies) was “the most stable crystalline form”. Besides, the solubility in series [2] (organic solvent or mixture, DCM, 40° C., read-out: Solubility at 40° C.) was below 6000 µg/mL; in series [2] (organic solvent or mixture, DCM, RT, read-out: Solubility at RT) it was below 6000 µg/mL; in series [2] (organic solvent or mixture, EtOAc, 40° C., read-out: Solubility at 40° C.), below 6000 µg/mL; in series [2] (organic solvent or mixture, EtOAc, RT, read-out: Solubility at RT), below 6000 µg/mL; in series [2] (organic solvent or mixture, IPA, 40° C., read-out: Solubility at 40° C.), below 6000 µg/mL; in series [2] (organic solvent or mixture, IPA, RT, read-out: Solubility at RT), below 6000 µg/mL. For the same compound, the solubility in series [2] (organic solvent or mixture, IPA:water (9:1), 40° C., read-out: Solubility at 40° C.) is below 6000 µg/mL; in series [2] (organic solvent or mixture, IPA:water (9:1), RT, read-out: Solubility at RT), below 6000 µg/mL; in series [2] (organic solvent or mixture, IPE, 40° C., read-out: Solubility at 40° C.), below 6000 µg/mL; in series [2] (organic solvent or mixture, IPE, RT, read-out: Solubility at RT), below 6000 µg/mL; in series [2] (organic solvent or mixture, MTBE, 40° C., read-out: Solubility at 40° C.), below 6000 µg/mL; in series [2] (organic solvent or mixture, MTBE, RT, read-out: Solubility at RT) it was below 6000 µg/mL. The solubility in series [2] (organic solvent or mixture, MeCN, 40° C., read-out: Solubility at 40° C.) is below 6000 µg/mL; in series [2] (organic solvent or mixture, MeCN, RT, read-out: Solubility at RT), below 6000 µg/mL; in series [2] (organic solvent or mixture, MeOH, 40° C., read-out: Solubility at 40° C.), below 7000 µg/mL; in series [2] (organic solvent or mixture, MeOH, RT, read-out: Solubility at RT), below 7000 µg/mL; in series [2] (organic solvent or mixture, THF, 40° C., read-out: Solubility at 40° C.), below 6000 µg/mL; in series [2] (organic solvent or mixture, THF, RT, read-out: Solubility at RT), below 6000 µg/mL. The solubility is below 7000 µg/mL in series [2] (organic solvent or mixture, Toluene, 40° C., read-out: Solubility at 40° C.); below 7000 µg/mL in series [2] (organic solvent or mixture, Toluene, RT, read-out: Solubility at RT); below 6000 µg/mL in series [2] (Water, 40° C., read-out: Solubility at 40° C.); below 6000 µg/mL in series [2] (Water, RT, read-out: Solubility at RT).

With `O=C(O)c1nc2ccccc2n([C@H]2C[C@H]3CCC[C@@H](C2)N3C2CC3CCCC(C3)C2)c1=O` (stereo partly shown) [Formula (I)], in series [3], the D10 turned out to be 0.63 μm, the D30 came to 1.36 μm, the D50 came out at 2.29 μm and the D70 is reported as 3.57 μm. This compound displayed a D90 in series [3] of 5.8 μm. In series [2] (all solvents of Table 3 other than DMSO, organic solvent or mixture, read-out: Solubility (low) in all other solvents evaluated), the solubility was at most 7000 µg/mL. Besides, the solubility in series [2] (organic solvent or mixture, DMSO, RT, read-out: Solubility at RT) is 21000 to 52000 µg/mL.
